The target in assay [1] is T1, mouse Siglec-2-Fc-Avi (CD22) (Mus musculus, UniProt P35329).
T1 construct: made in house
T1 sequence (P35329 22-708 limits assumed): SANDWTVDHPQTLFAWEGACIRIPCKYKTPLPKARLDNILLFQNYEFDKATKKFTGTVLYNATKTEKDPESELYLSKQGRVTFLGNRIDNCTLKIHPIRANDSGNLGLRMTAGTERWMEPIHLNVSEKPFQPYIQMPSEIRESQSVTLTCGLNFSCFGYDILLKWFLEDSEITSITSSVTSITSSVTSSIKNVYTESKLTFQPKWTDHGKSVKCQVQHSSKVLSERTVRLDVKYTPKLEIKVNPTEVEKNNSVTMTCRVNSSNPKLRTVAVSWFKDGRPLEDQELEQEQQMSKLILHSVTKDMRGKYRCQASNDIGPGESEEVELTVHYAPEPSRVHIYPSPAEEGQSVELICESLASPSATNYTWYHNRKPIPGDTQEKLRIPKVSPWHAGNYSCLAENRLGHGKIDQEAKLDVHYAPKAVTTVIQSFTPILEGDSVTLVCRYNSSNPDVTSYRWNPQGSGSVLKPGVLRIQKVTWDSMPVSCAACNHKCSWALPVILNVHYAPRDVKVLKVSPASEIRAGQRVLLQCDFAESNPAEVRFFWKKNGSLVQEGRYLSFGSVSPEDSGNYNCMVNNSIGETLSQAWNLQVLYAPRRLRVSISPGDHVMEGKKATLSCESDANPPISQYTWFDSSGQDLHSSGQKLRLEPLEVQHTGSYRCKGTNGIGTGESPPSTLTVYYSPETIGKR
The assay can be described thus: SPR binding affinity to mouse CD22. As to conditions: steady-state analysis. The gist of the method:
(§1)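 SialoExo pretreatment, 4 h 37° C.; biotinylated CD22 on SA chip, Biacore 8K. Buffer 10 mM HEPES, 150 mM NaCl, 0.05% Tween-20, pH 7.5, 1% DMSO. Dissociation 120 s; solvent-corrected; steady-state KD.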
A general note: Surface plasmon resonance follows binding to a sensor surface in real time, without labels.

For assay [2], the target named is T2, human Siglec-2/CD22 protein (Homo sapiens, UniProt P20273).
T2 construct: purchased Acro Biosystems SI2-H82E3
T2 sequence (P20273 20-847): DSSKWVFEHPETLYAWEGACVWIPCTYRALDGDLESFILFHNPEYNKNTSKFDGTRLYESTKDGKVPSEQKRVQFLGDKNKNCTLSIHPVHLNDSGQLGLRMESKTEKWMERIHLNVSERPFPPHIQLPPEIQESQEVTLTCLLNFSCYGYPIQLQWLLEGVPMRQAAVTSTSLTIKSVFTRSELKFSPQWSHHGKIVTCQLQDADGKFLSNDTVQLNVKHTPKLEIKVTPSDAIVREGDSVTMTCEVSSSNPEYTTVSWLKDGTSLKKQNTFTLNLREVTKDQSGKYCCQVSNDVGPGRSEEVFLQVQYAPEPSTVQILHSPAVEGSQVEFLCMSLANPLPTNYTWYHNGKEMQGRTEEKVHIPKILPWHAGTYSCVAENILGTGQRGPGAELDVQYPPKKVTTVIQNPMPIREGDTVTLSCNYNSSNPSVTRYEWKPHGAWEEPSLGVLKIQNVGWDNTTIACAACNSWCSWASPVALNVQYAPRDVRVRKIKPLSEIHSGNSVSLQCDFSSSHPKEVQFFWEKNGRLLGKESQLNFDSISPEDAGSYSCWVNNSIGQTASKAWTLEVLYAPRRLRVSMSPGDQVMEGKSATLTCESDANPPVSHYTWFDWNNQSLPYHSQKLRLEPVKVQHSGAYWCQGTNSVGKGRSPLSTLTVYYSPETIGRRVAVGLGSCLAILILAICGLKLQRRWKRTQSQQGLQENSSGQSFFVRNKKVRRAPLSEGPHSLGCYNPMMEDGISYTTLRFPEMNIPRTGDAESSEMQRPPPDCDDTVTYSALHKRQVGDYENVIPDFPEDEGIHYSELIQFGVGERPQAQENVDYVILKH
The assay can be described thus: SPR binding affinity to human CD22. As to conditions: steady-state analysis. The gist of the method:
as §1

The target in assay [3] is cynomolgus Siglec-2/CD22 (Macaca fascicularis, UniProt A0A2K5WCZ6). The assay can be described thus: biochemical. The class given is binding. The following applies: SPR, steady-state analysis; read-out: Affinity cyno CD22. In short, it runs like this:
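Compound binding measured by steady-state SPR analysis, 120 s dissociation, in HEPES-NaCl-Tween buffer pH 7.5 containing 1% DMSO, DMSO solvent-corrected. Surface: cyno CD22, sialic acids first stripped by SialoExo for 4 h at 37° C., then amine-coupled onto CM5.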

Sequence of cynomolgus Siglec-2/CD22 (A0A2K5WCZ6 entry or part of it): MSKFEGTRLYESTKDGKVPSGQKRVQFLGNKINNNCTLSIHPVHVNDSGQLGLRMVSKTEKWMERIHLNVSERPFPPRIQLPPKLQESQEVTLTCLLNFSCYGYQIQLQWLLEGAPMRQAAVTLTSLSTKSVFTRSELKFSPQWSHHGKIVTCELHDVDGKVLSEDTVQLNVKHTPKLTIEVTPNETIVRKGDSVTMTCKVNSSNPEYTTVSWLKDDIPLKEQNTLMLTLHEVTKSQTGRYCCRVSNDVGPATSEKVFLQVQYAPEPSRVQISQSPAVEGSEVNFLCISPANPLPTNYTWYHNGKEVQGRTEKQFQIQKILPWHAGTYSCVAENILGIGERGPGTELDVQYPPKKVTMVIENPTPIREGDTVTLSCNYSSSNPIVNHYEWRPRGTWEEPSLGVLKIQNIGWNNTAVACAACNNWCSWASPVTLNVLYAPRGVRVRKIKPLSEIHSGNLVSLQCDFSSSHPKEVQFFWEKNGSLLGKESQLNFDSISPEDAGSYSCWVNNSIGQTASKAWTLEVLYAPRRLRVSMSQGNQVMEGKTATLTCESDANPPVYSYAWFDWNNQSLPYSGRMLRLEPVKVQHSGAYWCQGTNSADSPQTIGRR

Turning to `C#CCOCCOCCO[C@]1(C(=O)O)C[C@H](O)[C@@H](NC(=O)CO)[C@H]([C@H](O)[C@H](O)CNC(=O)Cc2cc(O)cc(Cl)c2)O1` [Compound 129, (2R,4S,5R,6R)-6-((1R,2R)-3-(2-(3-chloro-5-hydroxyphenyl)acetamido)-1,2-dihydroxypropyl)-4-hydroxy-5-(2-hydroxyacetamido)-2-(2-(2-(prop-2-yn-1-yloxy)ethoxy)ethoxy)tetrahydro-2H-pyran-2-carboxylic acid], the Kd is 1 to 10 µM in assay [1], under 1 µM in assay [2] and under 1 µM in assay [3].

As to `C#CCOCCCCCCO[C@]1(C(=O)O)C[C@H](O)[C@@H](NC(N)=O)[C@H]([C@H](O)[C@H](O)CNC(=O)Cc2ccc(Cl)cc2)O1` [Cpd. 86, (2R,4S,5R,6R)-6-((1R,2R)-3-(2-(4-chlorophenyl)acetamido)-1,2-dihydroxypropyl)-4-hydroxy-2-((6-(prop-2-yn-1-yloxy)hexyl)oxy)-5-ureidotetrahydro-2H-pyran-2-carboxylic acid], the Kd is under 1 µM in assay [1], under 1 µM in assay [2] and 1 to 10 µM in assay [3].

Turning to `C#CCOCCCCCCO[C@]1(C(=O)O)C[C@H](O)[C@@H](NC(=O)NCC(F)(F)F)[C@H]([C@H](O)[C@H](O)CNC(=O)Cc2ccc(Cl)cc2)O1` [Compound 193, (2R,4S,5R,6R)-6-((1R,2R)-3-(2-(4-chlorophenyl)acetamido)-1,2-dihydroxypropyl)-4-hydroxy-2-((6-(prop-2-yn-1-yloxy)hexyl)oxy)-5-(3-(2,2,2-trifluoroethyl)ureido)tetrahydro-2H-pyran-2-carboxylic acid], the Kd in assay [1], in assay [2] and in assay [3] was 1 to 10 µM throughout.

For the compound `C#CCOCCCCCCO[C@]1(C(=O)O)C[C@H](O)[C@@H](NC(=O)CO)[C@H]([C@H](O)[C@H](O)CNC(=O)Cc2ccc(OC(F)(F)F)cc2)O1` [Compound 156, (2R,4S,5R,6R)-6-((1R,2R)-1,2-dihydroxy-3-(2-(4-(trifluoromethoxy)phenyl)acetamido)propyl)-4-hydroxy-5-(2-hydroxyacetamido)-2-((6-(prop-2-yn-1-yloxy)hexyl)oxy)tetrahydro-2H-pyran-2-carboxylic acid], the Kd was 1 to 10 µM in assay [1], under 1 µM in assay [2] and under 1 µM in assay [3].

`C#CCCOc1ccc(CO[C@]2(C(=O)O)C[C@H](O)[C@@H](NC(=O)CO)[C@H]([C@H](O)[C@H](O)CNC(=O)C3(c4ccccc4)CC3)O2)cc1` [Compound 173, (2R,4S,5R,6R)-2-((4-(but-3-yn-1-yloxy)benzyl)oxy)-6-((1R,2R)-1,2-dihydroxy-3-(1-phenylcyclopropane-1-carboxamido)propyl)-4-hydroxy-5-(2-hydroxyacetamido)tetrahydro-2H-pyran-2-carboxylic acid]: the Kd in assay [1] is over 10 µM; in assay [2], 1 to 10 µM; in assay [3], 1 to 10 µM.

Turning to `C#CCCOc1ccc(CO[C@]2(C(=O)O)C[C@H](O)[C@@H](NC(=O)CO)[C@H]([C@H](O)[C@H](O)CNC(=O)Cc3ccc(Cl)cc3)O2)cc1` [Compound 124, (2R,4S,5R,6R)-2-((4-(but-3-yn-1-yloxy)benzyl)oxy)-6-((1R,2R)-3-(2-(4-chlorophenyl)acetamido)-1,2-dihydroxypropyl)-4-hydroxy-5-(2-hydroxyacetamido)tetrahydro-2H-pyran-2-carboxylic acid], the Kd was under 1 µM in assay [1], under 1 µM in assay [2] and 1 to 10 µM in assay [3].

For the compound `C#CCOCCNc1c(NCCCCCCO[C@]2(C(=O)O)C[C@H](O)[C@@H](NC(=O)CO)[C@H]([C@H](O)[C@H](O)CNC(=O)Cc3ccc(C(F)F)cc3)O2)c(=O)c1=O` [Compound 216, (2R,4S,5R,6R)-6-((1R,2R)-3-(2-(4-(difluoromethyl)phenyl)acetamido)-1,2-dihydroxypropyl)-2-((6-((3,4-dioxo-2-((2-(prop-2-yn-1-yloxy)ethyl)amino)cyclobut-1-en-1-yl)amino)hexyl)oxy)-4-hydroxy-5-(2-hydroxyacetamido)tetrahydro-2H-pyran-2-carboxylic acid], the Kd in assay [1], in assay [2] and in assay [3] was under 1 µM each time.

As to `C#CCOCCOCCO[C@]1(C(=O)O)C[C@H](O)[C@@H](NC(=O)CC#N)[C@H]([C@H](O)[C@H](O)CNC(=O)Cc2ccc(-c3ccc(O)cc3)cc2)O1` [Compound 58, (2R,4S,5R,6R)-5-(2-cyanoacetamido)-6-((1R,2R)-1,2-dihydroxy-3-(2-(4′-hydroxy-[1,1′-biphenyl]-4-yl)acetamido)propyl)-4-hydroxy-2-(2-(2-(prop-2-yn-1-yloxy)ethoxy)ethoxy)tetrahydro-2H-pyran-2-carboxylic acid], the Kd in assay [1], in assay [2] and in assay [3] was 1 to 10 µM in each case.

As to `C#CCCOc1ccc(CO[C@]2(C(=O)O)C[C@H](O)[C@@H](NC(=O)CO)[C@H]([C@H](O)[C@H](O)CNC(=O)Cc3ccccc3N3CCOCC3)O2)cc1` [Compound 138, (2R,4S,5R,6R)-2-((4-(but-3-yn-1-yloxy)benzyl)oxy)-6-((1R,2R)-1,2-dihydroxy-3-(2-(2-morpholinophenyl)acetamido)propyl)-4-hydroxy-5-(2-hydroxyacetamido)tetrahydro-2H-pyran-2-carboxylic acid], the Kd in assay [1] is 1 to 10 µM; in assay [2], 1 to 10 µM; in assay [3], under 1 µM.

As to `C#CCOCCCCCCO[C@]1(C(=O)O)C[C@H](O)[C@@H](NC(=O)N(C)C)[C@H]([C@H](O)[C@H](O)CNC(=O)Cc2ccc(Cl)cc2)O1` [Compound 85, (2R,4S,5R,6R)-6-((1R,2R)-3-(2-(4-chlorophenyl)acetamido)-1,2-dihydroxypropyl)-5-(3,3-dimethylureido)-4-hydroxy-2-((6-(prop-2-yn-1-yloxy)hexyl)oxy)tetrahydro-2H-pyran-2-carboxylic acid], the Kd in assay [1] is 1 to 10 µM; in assay [2], under 1 µM; in assay [3] it was under 1 µM.

Turning to `C#CCOCCOCCO[C@]1(C(=O)NS(C)(=O)=O)C[C@H](O)[C@@H](NC(=O)CO)[C@H]([C@H](O)[C@H](O)CNC(=O)Cc2ccc(-c3ccc(O)cc3)cc2)O1` [Compound 65, (2R,4S,5R,6R)-6-((1R,2R)-1,2-dihydroxy-3-(2-(4′-hydroxy-[1,1′-biphenyl]-4-yl)acetamido)propyl)-4-hydroxy-5-(2-hydroxyacetamido)-N-(methylsulfonyl)-2-(2-(2-(prop-2-yn-1-yloxy)ethoxy)ethoxy)tetrahydro-2H-pyran-2-carboxamide], the Kd in assay [1], in assay [2] and in assay [3] was over 10 µM in each case.

With `C#CCOCCOCCNc1c(NCCCCCCO[C@]2(C(=O)O)C[C@H](O)[C@@H](NC(=O)CO)[C@H]([C@H](O)[C@H](O)CNC(=O)c3ccc(F)cc3)O2)c(=O)c1=O` [Compound 232, (2R,4S,5R,6R)-2-((6-((3,4-dioxo-2-((2-(2-(prop-2-yn-1-yloxy)ethoxy)ethyl)amino)cyclobut-1-en-1-yl)amino)hexyl)oxy)-6-((1R,2R)-3-(4-fluorobenzamido)-1,2-dihydroxypropyl)-4-hydroxy-5-(2-hydroxyacetamido)tetrahydro-2H-pyran-2-carboxylic acid], the Kd was over 10 µM in assay [1], 1 to 10 µM in assay [2] and 1 to 10 µM in assay [3].

For the origin of these results see patent US20250064941A1, “SIGLEC LIGANDS, CONJUGATES, AND METHODS OF USE THEREOF” (Osprey Biopharmaceuticals, Inc., priority 2023, published 2025).
